{"source": "patent US7491819B1", "about": "(priority 2004, dated 2009)"}
{"target": "T1, HIV-integrase (Human immunodeficiency virus type 1 group M subtype B, UniProt P12497)", "T1 construct": "Recombinant integrase (0.26 ng) was incubated with the beads", "assay": "HIV-Integrase Inhibition Activity (SPA bead strand-transfer assay)", "assay_type": "biochemical", "conditions": "Table 1; read-out: Activity (HIV-integrase inhibition, IC50 class)", "summary_of_the_method": "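Strand-transfer read-out: CPM from P33-labelled target DNA (0.1 fmol) joined to bead-bound biotin substrate DNA (5 pmole), with EDTA stop at 10 mM final. Integrase (0.26 ng) prebound to streptavidin SPA beads 90 min, 37° C, and washed before adding inhibitor.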", "units": {"IC50": "nM"}}
{"smiles": "CCNc1cc(F)ccc1CNC(=O)c1nc2n(c(=O)c1O)CCOC2(C)C", "note": "[Example 87, Pyrimido[2,1-c][1,4]oxazine-2-carboxamide, N-[[2-(ethylamino)-4-fluorophenyl]methyl]-4,6,7,9-tetrahydro-3-hydroxy-9,9-dimethyl-4-oxo-]", "IC50": "2 to 100"}
{"smiles": "C#Cc1cc(F)ccc1CNC(=O)c1nc2n(c(=O)c1O)CCOC2(C)C", "note": "[Example 88, Pyrimido[2,1-c][1,4]oxazine-2-carboxamide, N-[(2-ethynyl-4-fluorophenyl)methyl]-4,6,7,9-tetrahydro-3-hydroxy-9,9-dimethyl-4-oxo-]", "IC50": "2 to 100"}
{"smiles": "CC1(C)OCCn2c1nc(C(=O)NCc1ccc(F)cc1C#CCO)c(O)c2=O", "note": "[Example 89, Pyrimido[2,1-c][1,4]oxazine-2-carboxamide, N-[[4-fluoro-2-(3-hydroxy-1-propynyl)phenyl]methyl]-4,6,7,9-tetrahydro-3-hydroxy-9,9-dimethyl-4-oxo-]", "IC50": "2 to 100"}
{"smiles": "CC1(C)OCCn2c1nc(C(=O)NCc1ccc(F)cc1C#CCOS(C)(=O)=O)c(O)c2=O", "note": "[Example 90, Pyrimido[2,1-c][1,4]oxazine-2-carboxamide, N-[[4-fluoro-2-[3-[(methylsulfonyl)oxy]-1-propynyl]phenyl]methyl]-4,6,7,9-tetrahydro-3-hydroxy-9,9-dimethyl-4-oxo-]", "IC50": "2 to 100"}
{"smiles": "CN(C)CC#Cc1cc(F)ccc1CNC(=O)c1nc2n(c(=O)c1O)CCOC2(C)C", "note": "[Example 91, Pyrimido[2,1-c][1,4]oxazine-2-carboxamide, N-[[2-[3-(dimethylamino)-1-propynyl]-4-fluorophenyl]methyl]-4,6,7,9-tetrahydro-3-hydroxy-9,9-dimethyl-4-oxo-]", "IC50": "2 to 100"}
{"smiles": "CC1(C)OCCn2c1nc(C(=O)NCc1ccc(F)cc1C#CCS(C)(=O)=O)c(O)c2=O", "note": "[Example 92, Pyrimido[2,1-c][1,4]oxazine-2-carboxamide, N-[[4-fluoro-2-[3-(methylsulfonyl)-1-propynyl]phenyl]methyl]-4,6,7,9-tetrahydro-3-hydroxy-9,9-dimethyl-4-oxo-]", "IC50": "2 to 100"}
{"smiles": "CC1(C)OCCn2c1nc(C(=O)NCc1ccc(F)cc1C#CCN1CCCCS1(=O)=O)c(O)c2=O", "note": "[Example 93, Pyrimido[2,1-c][1,4]oxazine-2-carboxamide, N-[[4-fluoro-2-[3-(tetrahydro-1,1-dioxido-2H-1,2-thiazin-2-yl)-1-propynyl]phenyl]methyl]-4,6,7,9-tetrahydro-3-hydroxy-9,9-dimethyl-4-oxo-]", "IC50": "2 to 100"}
{"smiles": "CC1(C)OCCn2c1nc(C(=O)NCc1cccc3c1NC(=O)C3)c(O)c2=O", "note": "[Example 94]", "IC50": "2 to 100"}
{"smiles": "CC1(C)OCCn2c1nc(C(=O)NCc1ccc(F)cc1O)c(O)c2=O", "note": "[Example 95, Pyrimido[2,1-c][1,4]oxazine-2-carboxamide, N-[(4-fluoro-2-hydroxyphenyl)methyl]-4,6,7,9-tetrahydro-3-hydroxy-9,9-dimethyl-4-oxo-]", "IC50": "2 to 100"}
{"smiles": "CNC(=O)COc1cc(F)ccc1CNC(=O)c1nc2n(c(=O)c1O)CCOC2(C)C", "note": "[Example 97, Pyrimido[2,1-c][1,4]oxazine-2-carboxamide, N-[[4-fluoro-2-[2-(methylamino)-2-oxoethoxy]phenyl]methyl]-4,6,7,9-tetrahydro-3-hydroxy-9,9-dimethyl-4-oxo-]", "IC50": "2 to 100"}
{"smiles": "CN(C)C(=O)COc1cc(F)ccc1CNC(=O)c1nc2n(c(=O)c1O)CCOC2(C)C", "note": "[Example 98, Pyrimido[2,1-c][1,4]oxazine-2-carboxamide, N-[[2-[2-(dimethylamino)-2-oxoethoxy]-4-fluorophenyl]methyl]-4,6,7,9-tetrahydro-3-hydroxy-9,9-dimethyl-4-oxo-]", "IC50": "2 to 100"}
{"smiles": "CSc1cc(F)ccc1CNC(=O)c1nc2n(c(=O)c1O)CCOC2(C)C", "note": "[Example 100, Pyrimido[2,1-c][1,4]oxazine-2-carboxamide, N-[[4-fluoro-2-(methylthio)phenyl]methyl]-4,6,7,9-tetrahydro-3-hydroxy-9,9-dimethyl-4-oxo-]", "IC50": "2 to 100"}
{"smiles": "CC1(C)OCCn2c1nc(C(=O)NCc1ccc(F)cc1S(C)(=O)=O)c(O)c2=O", "note": "[Example 101, Pyrimido[2,1-c][1,4]oxazine-2-carboxamide, N-[[4-fluoro-2-(methylsulfonyl)phenyl]methyl]-4,6,7,9-tetrahydro-3-hydroxy-9,9-dimethyl-4-oxo-]", "IC50": "2 to 100"}
{"smiles": "C[S+]([O-])c1cc(F)ccc1CNC(=O)c1nc2n(c(=O)c1O)CCOC2(C)C", "note": "(centres unmarked) [Example 102, Pyrimido[2,1-c][1,4]oxazine-2-carboxamide, N-[[4-fluoro-2-(methylsulfinyl)phenyl]methyl]-4,6,7,9-tetrahydro-3-hydroxy-9,9-dimethyl-4-oxo]", "IC50": "2 to 100"}
{"smiles": "CS(=N)c1cc(F)ccc1CNC(=O)c1nc2n(c(=O)c1O)CCOC2(C)C", "note": "(centres unmarked) [Example 103, Pyrimido[2,1-c][1,4]oxazine-2-carboxamide, N-[[4-fluoro-2-(S-methylsulfinimidoyl)phenyl]methyl]-4,6,7,9-tetrahydro-3-hydroxy-9,9-dimethyl-4-oxo-]", "IC50": "2 to 100"}
{"smiles": "CC1(C)OCCn2c1nc(C(=O)NCc1cccc(C3(C(F)(F)F)N=N3)c1)c(O)c2=O", "note": "[Example 105, Pyrimido[2,1-c][1,4]oxazine-2-carboxamide, 4,6,7,9-tetrahydro-3-hydroxy-9,9-dimethyl-4-oxo-N-[[3-[3-(trifluoromethyl)-3H-diazirin-3-yl]-phenyl]methyl]-]", "IC50": "2 to 100"}
{"smiles": "Cn1nnc(-c2cc(F)ccc2CNC(=O)c2nc3n(c(=O)c2O)CCOC3(C)C)n1", "note": "[Example 106, Pyrimido[2,1-c][1,4]oxazine-2-carboxamide, N-[[4-fluoro-2-(2-methyl-2H-tetrazol-5-yl)phenyl]methyl]-4,6,7,9-tetrahydro-3-hydroxy-9,9-dimethyl-4-oxo-]", "IC50": "2 to 100"}
{"smiles": "Cn1nnnc1-c1cc(F)ccc1CNC(=O)c1nc2n(c(=O)c1O)CCOC2(C)C", "note": "[Example 107, Pyrimido[2,1-c][1,4]oxazine-2-carboxamide, N-[[4-fluoro-2-(1-methyl-1H-tetrazol-5-yl)phenyl]methyl]-4,6,7,9-tetrahydro-3-hydroxy-9,9-dimethyl-4-oxo-]", "IC50": "2 to 100"}
{"smiles": "CN(C)S(=O)(=O)c1cc(F)ccc1CNC(=O)c1nc2n(c(=O)c1O)CCOC2(C)C", "note": "[Example 108, Pyrimido[2,1-c][1,4]oxazine-2-carboxamide, N-[[2-[(dimethylamino)sulfonyl]-4-fluorophenyl]methyl]-4,6,7,9-tetrahydro-3-hydroxy-9,9-dimethyl-4-oxo-]", "IC50": "2 to 100"}
{"smiles": "CNS(=O)(=O)c1cc(F)ccc1CNC(=O)c1nc2n(c(=O)c1O)CCOC2(C)C", "note": "[Example 109, Pyrimido[2,1-c][1,4]oxazine-2-carboxamide, N-[[4-fluoro-2-[(methylamino)sulfonyl]phenyl]methyl]-4,6,7,9-tetrahydro-3-hydroxy-9,9-dimethyl-4-oxo-]", "IC50": "2 to 100"}
{"smiles": "CC1(C)OCCn2c1nc(C(=O)NCc1ccc(F)cc1S(N)(=O)=O)c(O)c2=O", "note": "[Example 110, Pyrimido[2,1-c][1,4]oxazine-2-carboxamide, N-[[2-(aminosulfonyl)-4-fluorophenyl]methyl]-4,6,7,9-tetrahydro-3-hydroxy-9,9-dimethyl-4-oxo-]", "IC50": "2 to 100"}
{"smiles": "CC1(C)OCCn2c1nc(C(=O)NCc1ccc(F)cc1S(=O)(=O)N1CCC1)c(O)c2=O", "note": "[Example 111, Pyrimido[2,1-c][1,4]oxazine-2-carboxamide, N-[[2-(1-azetidinylsulfonyl)-4-fluorophenyl]methyl]-4,6,7,9-tetrahydro-3-hydroxy-9,9-dimethyl-4-oxo-]", "IC50": "2 to 100"}
{"smiles": "CSc1ccccc1CNC(=O)c1nc2n(c(=O)c1O)CCOC2(C)C", "note": "[Example 112, Pyrimido[2,1-c][1,4]oxazine-2-carboxamide, 4,6,7,9-tetrahydro-3-hydroxy-9,9-dimethyl-N-[[2-(methylthio)phenyl]methyl]-4-oxo-]", "IC50": "2 to 100"}
{"smiles": "C[S+]([O-])c1ccccc1CNC(=O)c1nc2n(c(=O)c1O)CCOC2(C)C", "note": "(centres unmarked) [Example 113, Pyrimido[2,1-c][1,4]oxazine-2-carboxamide, 4,6,7,9-tetrahydro-3-hydroxy-9,9-dimethyl-N-[[2-(methylsulfinyl)phenyl]methyl]-4-oxo-]", "IC50": "2 to 100"}
{"smiles": "CC1(C)OCCn2c1nc(C(=O)NCc1ccccc1S(C)(=O)=O)c(O)c2=O", "note": "[Example 114, Pyrimido[2,1-c][1,4]oxazine-2-carboxamide, 4,6,7,9-tetrahydro-3-hydroxy-9,9-dimethyl-N-[[2-(methylsulfonyl)phenyl]methyl]-4-oxo-]", "IC50": "2 to 100"}
{"smiles": "CC1(C)OCCn2c1nc(C(=O)NCc1ccc(F)cc1Nc1nccs1)c(O)c2=O", "note": "[Example 115, Pyrimido[2,1-c][1,4]oxazine-2-carboxamide, N-[[4-fluoro-2-(2-thiazolylamino)phenyl]methyl]-4,6,7,9-tetrahydro-3-hydroxy-9,9-dimethyl-4-oxo-]", "IC50": "2 to 100"}
{"smiles": "Cc1nnc(Nc2cc(F)ccc2CNC(=O)c2nc3n(c(=O)c2O)CCOC3(C)C)s1", "note": "[Example 116, Pyrimido[2,1-c][1,4]oxazine-2-carboxamide, N-[[4-fluoro-2-[(5-methyl-1,3,4-thiadiazol-2-yl)amino]phenyl]methyl]-4,6,7,9-tetrahydro-3-hydroxy-9,9-dimethyl-4-oxo-]", "IC50": "2 to 100"}
{"smiles": "CC1(C)OCCCn2c1nc(C(=O)NCc1ccc(F)cc1-n1cncn1)c(O)c2=O", "note": "[Example 117, 6H-Pyrimido[2,1-c][1,4]oxazepine-2-carboxamide, N-[[4-fluoro-2-(1H-1,2,4-triazol-1-yl)phenyl]methyl]-4,7,8,10-tetrahydro-3-hydroxy-10,10-dimethyl-4-oxo-]", "IC50": "2 to 100"}
{"smiles": "CNC(=O)c1cc(F)ccc1CNC(=O)c1nc2n(c(=O)c1O)CCCOC2(C)C", "note": "[Example 118, 6H-Pyrimido[2,1-c][1,4]oxazepine-2-carboxamide, N-[[4-fluoro-2-[(methylamino)carbonyl]phenyl]methyl]-4,7,8,10-tetrahydro-3-hydroxy-10,10-dimethyl-4-oxo-]", "IC50": "2 to 100"}
